Results taken from ChEMBL document CHEMBL4011606, “Synthesis and antiplasmodial activity of novel indoleamide derivatives bearing sulfonamide and triazole pharmacophores” (Eur J Med Chem, 2017).

Columns and labels:
Plasmodium falciparum [1] = assay: Antiplasmodial activity against chloroquine-sensitive Plasmodium falciparum 3D7 infected in human erythrocytes measured after 72 hrs by SYBR green 1 dye based fluorescence assay; format: functional, cell-based; settings: 3D7, 72 h
[2] = Cytotoxicity against African green monkey Vero cells measured after 3 days by resazurin dye based fluorescence assay; format: cell-based; settings: chlorocebus sabaeus
[3] = Selectivity index, ratio of CC50 for African green monkey Vero cells to IC50 for chloroquine-sensitive Plasmodium falciparum 3D7; format: toxicity; settings: read-out: Ratio CC50/IC50
[4] = Selectivity index, ratio of CC50 for African green monkey Vero cells to IC50 for chloroquine-resistant Plasmodium falciparum K1; format: toxicity; settings: read-out: Ratio CC50/IC50
Plasmodium falciparum [5] = assay: Antiplasmodial activity against chloroquine-resistant Plasmodium falciparum K1 infected in human erythrocytes measured after 72 hrs by SYBR green 1 dye based fluorescence assay; format: functional, cell-based; settings: K1, 72 h
[6] = Resistance index, ratio of IC50 for chloroquine-resistant Plasmodium falciparum K1 to IC50 for chloroquine-sensitive Plasmodium falciparum 3D7; format: functional

Row | Structure (SMILES) | IC50 (Plasmodium falciparum [1]) | CC50 at 72 h [2] | selectivity ratio [3] | selectivity ratio [4] | IC50 (Plasmodium falciparum [5]) | Ratio IC50 [6]
1 | O=C(CCCc1cn(CCN2CCOCC2)c2ccccc12)NC1CCCCCC1 | 4.15 µM | > 250 µM | > 60 | > 35 | 7.04 µM | 1.77
2 | Cc1ccc(S(=O)(=O)n2cc(CCCC(=O)NC34CC5CC(CC(C5)C3)C4)c3ccccc32)cc1 | 3.99 µM | > 250 µM | > 62 | > 63 | 3.95 µM | 0.98
